Test results from patent publication US5500807A, “Selection method for pharmacologically active compounds” (The Regents of the University of California, priority 1992, dated 1996).
Values belong to the compound of their own block, whether it stands above or below them.

How the values were obtained:
[1] = molecular target: T1, human thyroid hormone receptor (Homo sapiens, UniProt P10828); test: Receptor binding to in-vitro translated human thyroid hormone receptor (FIGS. 8-13)
T1 sequence (P10828 1-461): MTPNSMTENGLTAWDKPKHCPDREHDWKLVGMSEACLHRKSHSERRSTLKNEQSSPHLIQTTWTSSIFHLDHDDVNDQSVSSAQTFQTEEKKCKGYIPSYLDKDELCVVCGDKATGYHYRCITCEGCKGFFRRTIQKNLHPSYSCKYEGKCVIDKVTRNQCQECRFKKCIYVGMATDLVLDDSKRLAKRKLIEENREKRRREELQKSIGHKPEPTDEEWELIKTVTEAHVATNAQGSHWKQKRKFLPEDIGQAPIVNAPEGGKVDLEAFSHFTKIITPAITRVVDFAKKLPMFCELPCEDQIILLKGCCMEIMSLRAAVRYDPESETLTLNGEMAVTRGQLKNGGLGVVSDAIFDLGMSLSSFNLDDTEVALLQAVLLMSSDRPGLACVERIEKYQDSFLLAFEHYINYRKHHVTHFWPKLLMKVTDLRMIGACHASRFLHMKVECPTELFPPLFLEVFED
Text: In FIGS. 8-13, human thyroid hormone receptor was produced by in-vitro translation of RNA coding for the receptor protein. The RNA was synthesized enzymatically using a human thyroid receptor DNA clone as a template.

[2] = tested on: thyroid hormone receptor in nuclei of intact GC cells; assay type: cell-based, rat; settings: for competition with labeled T3, in words: intact cells
[3] = nuclear but not mitochondrial or cytosol fractions; cited from earlier work
rGH mRNA in GC cells = settings: 300 pM T3; Northern analysis; FIG. 7a
[4] = cited from earlier work
thyroid hormone receptor = settings: J. Clin. Invest., 83 (1989); cited from earlier work
[5] = cases of clinical hypothyroidism

binding to T3 (thyroid hormone) receptor, in words [1]: zero binding
SMILES: CCN(CC)CCOc1c(I)cc(C(C)=O)cc1I

binding to T3 (thyroid hormone) receptor, in words [1]: good binding to T3 receptor
SMILES: CCN(CC)CCOc1c(I)cc(C(=O)c2c(C)oc3ccccc23)cc1I

binding to T3 (thyroid hormone) receptor, in words [1]: binds weakly to the T3 receptor
SMILES: CCCCc1oc2ccccc2c1C(O)c1cc(I)c(OCCN(CC)CC)c(I)c1 (stereo not drawn)

binding to T3 (thyroid hormone) receptor, in words [1]: binds to the T3 receptor
SMILES: CCCCNC(Cc1cc(I)c(Oc2ccc(O)c(I)c2)c(I)c1)C(=O)O (stereo not drawn)

binding to T3 (thyroid hormone) receptor, in words [1]: binds to the T3 receptors
SMILES: COc1ccc(C(=O)n2cc(CNC(Cc3cc(I)c(Oc4ccc(O)c(I)c4)c(I)c3)C(=O)O)c3cc(OC)ccc32)cc1 (stereo not drawn)

SMILES: N[C@@H](Cc1cc(I)c(Oc2ccc(O)c(I)c2)c(I)c1)C(=O)O [T3, triiodothyronine]
competition with labeled T3, in words [2]: competed with labeled T3 for binding to the thyroid hormone receptors | binding to cellular fractions, in words [3]: high-affinity, low capacity binding sites

SMILES: N[C@@H](Cc1cc(I)c(Oc2cc(I)c(O)c(I)c2)c(I)c1)C(=O)O [T4, thyroxine]
binding to cellular fractions, in words [3]: high-affinity, low capacity binding sites

SMILES: N[C@@H](Cc1cc(I)c(Oc2ccc(O)c(I)c2)c(I)c1)C(=O)O [^125 I-T3]
maximum binding capacity ([2]; intact GC cells, normalized to DNA content): about 85 fmol/100 ug DNA

SMILES: CCCCc1oc2ccccc2c1C(=O)c1cc(I)c(OCCN(CC)CC)c(I)c1 [amiodarone, 2-butyl-3-[3,5-diiodo-4-(β-diethylaminoethoxy)-benzoyl]benzofuran]
competition with labeled T3, in words [2]: competed with labeled T3 for binding to the thyroid hormone receptors | effect on induction of rGH mRNA (rGH mRNA in GC cells): blocked the induction of rGH mRNA | T4 and T3 serum levels in clinical hypothyroidism [4, 5]: normal or slightly decreased | pituitary thyroid receptor hormone binding [4, 5]: decreased pituitary thyroid receptor hormone binding | thyroid-stimulating hormone (TSH) levels [4, 5]: mildly elevated | thyroid side effects ([4]; chronic administration): both hyper- and hypothyroid-like side effects | effect on peripheral T4 monodeiodination ([4]; in vivo): inhibition of peripheral T4 monodeiodination | serum T4 and T3 levels ([4]; in vivo): changes in the concentrations of serum thyroxine (T4) and triiodothyronine (T3) levels | thyroid hormone antagonism, in words (thyroid hormone receptor): behaves as a competitive inhibitor of triiodothyronine (T3)
